The values below come from patent US9242984B2, “Pyrazolyl derivatives as Syk inhibitors” (Merck Sharp & Dohme Corp., priority 2012, dated 2016).

Structures are written as SMILES. pIC50: −log10 of the molar value. Where two headings read alike, the source gives them in different places.

The experiment deals with T1, recombinant human Syk (GST-hSyk fusion protein) (Homo sapiens, UniProt P43405).
T1 construct: purchased Carna Biosciences 08-176
In words: Homogeneous Time-Resolved Fluorescence (HTRF) assay for the recombinant human Syk enzyme. It is filed as biochemical. The conditions noted are these: 10-dose titration, 25 μM ATP. The method, then:
Syk inhibition may be determined using the following assay protocol:
Homogeneous Time-Resolved Fluorescence (HTRF) Assay for the Recombinant Human Syk Enzyme:
A recombinant GST-hSyk fusion protein was used to measure potency of compounds to inhibit human Syk activity. The recombinant human GST-Syk (Carna Biosciences #08-176) (5 pM final concentration) was incubated with various concentrations of the inhibitor diluted in DMSO (0.1% final concentration) for 10 minutes at room temperature in 15 mM Tris-HCl (pH 7.5), 0.01% tween 20, 2 mM DTT in 384 well plate format. To initiate the reaction the biotinylated substrate peptide (250 nM final concentration) that contains the phosphorylation site for Syk was added with magnesium (5 mM final concentration) and ATP (25 μM final concentration). Final volume of the reaction was 10 μL. Phosphorylation of the peptide was allowed to proceed for 45 minutes at room temperature. To quench the reaction and detect the phosphorylated product, 2 nM of a Europium-anti-phosphotyrosine antibody (Perkin Elmer #AD0161) and 70 nM SA-APC (Perkin-Elmer #CR130-100) were added together in 15 mM Tris pH 7.5, 40 mM EDTA, 0.01% tween 20. Final volume of the quenching solution was 10 μL. The resulting HTRF signal was measured after 30 minutes on an EnVision (Perkin-Elmer) reader using a time-resolved fluorescence protocol. IC50 was determined following 10-dose titration (10 μM to 0.508 nM) and four parameter logistic curve fitting using the Merck Assay Data Analyzer. The rhSyk activity (IC50) is expressed as +++(100 nM or less), ++(between 100 and 1000 nM), +(between 1 and 10 μM).
(Time-resolved FRET reads energy transfer from a long-lived donor to a nearby acceptor.)

[1] abbreviates: IC50 class, read-out: rhSYK Activity.

For the molecule `Cc1cc(Nc2nccc(C(F)(F)F)n2)cc(-c2cnn(CC(C)(O)C(N)=O)c2)c1` (single isomer, unassigned) [Example 8.3, 2-hydroxy-2-methyl-3-[4-(3-methyl-5-{[4-(trifluorometh-yl)pyrimidin-2-yl]amino}phenyl)-1H-pyrazol-1-yl]propanamide], under setting [1], the pIC50 was at least 7.00. For `Cc1cc(Nc2nccc(C(F)(F)F)n2)cc(-c2cnn(CC(C)(O)C(N)=O)c2)c1` (single isomer, unassigned) [Example 8.14, 2-hydroxy-2-methyl-3-[4-(3-methyl-5-{[4-(trifluorometh-yl)pyrimidin-2-yl]amino}phenyl)-1H-pyrazol-1-yl]propanamide], under setting [1], the pIC50 is at least 7.00.

`Cc1cc(Nc2nccc(C(F)(F)F)n2)cc(-c2cnn(CC(C)(O)C(N)=O)c2)c1` (single isomer, unassigned) [Example 8.15, 2-hydroxy-2-methyl-3-[4-(3-methyl-5-{[4-(trifluorometh-yl)pyrimidin-2-yl]amino}phenyl)-1H-pyrazol-1-yl]propanamide]: the pIC50 under setting [1] is at least 7.00.

Turning to `Cc1cc(Nc2nccc(C(F)(F)F)n2)cc(-c2cnn(C3CCCC(O)C3O)c2)c1` (single isomer, unassigned) [Example 10.1, (R or S) 3-[4-(3-methyl-5-{[4-(trifluoromethyl)pyrimidin-2-yl]amino}phenyl)-1H-pyrazol-1-yl]cyclohexane-1,2-diol], the pIC50 reads like this: (read-out: rhSYK IC50) 8.13; under setting [1], at least 7.00.

As to `Cc1cc(Nc2nccc(C(F)F)n2)cc(-c2cnn(C3CCCC(O)C3O)c2)c1` (single isomer, unassigned) [Example 10.4, 3-[4-(3-{[4-(difluoromethyl)pyrimidin-2-yl]amino}-5-methylphenyl)-1H-pyrazol-1-yl]cyclohexane-1,2-diol], the pIC50 was 8.43 (read-out: rhSYK IC50) and at least 7.00 under setting [1]. For `Cc1cc(Nc2nccc(C(F)F)n2)cc(-c2cnn(C3CCCC(O)C3O)c2)c1` (single isomer, unassigned) [Example 10.5, 3-[4-(3-{[4-(difluoromethyl)pyrimidin-2-yl]amino}-5-methylphenyl)-1H-pyrazol-1-yl]cyclohexane-1,2-diol] the same measures were 8.28 and at least 7.00. The corresponding values for `Cc1cc(Nc2nccc(C(F)F)n2)cc(-c2cnn(C3CCCC(O)C3O)c2)c1` (single isomer, unassigned) [Example 10.6, 3-[4-(3-{[4-(difluoromethyl)pyrimidin-2-yl]amino}-5-methylphenyl)-1H-pyrazol-1-yl]cyclohexane-1,2-diol] are 8.89 and at least 7.00. For `Cc1cc(Nc2nccc(C(F)F)n2)cc(-c2cnn(C3CCCC(O)C3O)c2)c1` (single isomer, unassigned) [Example 10.7, 3-[4-(3-{[4-(difluoromethyl)pyrimidin-2-yl]amino}-5-methylphenyl)-1H-pyrazol-1-yl]cyclohexane-1,2-diol] the same measures were 9.15 and at least 7.00. For the molecule `Cc1cc(Nc2ncc(F)c(C(F)F)n2)cc(-c2cnn([C@@H]3CCC[C@@H](O)[C@H]3O)c2)c1` (single isomer, unassigned) [Example 10.11, 3-[4-(3-{[4-(difluoromethyl)-5-fluoro-pyrimidin-2-yl]amino}-5-methylphenyl)-1H-pyrazol-1-yl]cyclohexane-1,2-diol], the pIC50 was 8.46 (read-out: rhSYK IC50) and at least 7.00 under setting [1]. Take `Cc1cc(Nc2nccc(C(F)(F)F)n2)cc(-n2cc(C(C)(O)c3ccc(C(=O)O)cc3)cn2)c1` (single isomer, unassigned) [Example 19.7, 4-{1-hydroxy-1-[1-(3-methyl-5-{[4-(trifluoromethyl)pyrimidin-2-yl]amino}phenyl)-1H-pyrazol-4-yl]ethyl}benzoic acid]: the pIC50 under setting [1] was at least 7.00. On the same count and under the same terms, with `Cc1cc(Nc2nccc(C(F)(F)F)n2)cc(-n2cc(C(C)(O)c3ccc(C(=O)O)cc3)cn2)c1` (single isomer, unassigned) [Example 19.8, 4-{1-hydroxy-1-[1-(3-methyl-5-{[4-(trifluoromethyl)pyrimidin-2-yl]amino}phenyl)-1H-pyrazol-4-yl]ethyl}benzoic acid] the figure was at least 7.00. In the case of `Cc1cc(Nc2cc(C(F)(F)F)ccn2)nc(-c2cnn(CC(C)(O)CC#N)c2)c1` (single isomer, unassigned) [Example 20.1, (R or S)-3-Hydroxy-3-methyl-4-(4-(4-methyl-6-((4-(trifluoromethyl)pyridin-2-yl)amino)pyridin-2-yl)-1H-pyrazol-1-yl)butanenitrile], the pIC50 reads like this: (read-out: rhSYK IC50) 8.77; under setting [1], at least 7.00.

As for `Cc1cc(Nc2nccc(C(F)(F)F)n2)cc(-c2cnn(CC(C)(O)CO)c2)c1` (single isomer, unassigned) [Example 21.1, 2-Methyl-3-(4-(3-methyl-5-((4-(trifluoromethyl)pyrimidin-2-yl)amino)phenyl)-1H-pyrazol-1-yl)propane-1,2-diol], the pIC50 is 8.44 (read-out: rhSYK IC50) and at least 7.00 under setting [1]. As for `Cc1cc(Nc2nccc(C(F)(F)F)n2)cc(-c2cnn(CC(C)(O)CO)c2)c1` (single isomer, unassigned) [Example 21.2, 2-Methyl-3-(4-(3-methyl-5-((4-(trifluoromethyl)pyrimidin-2-yl)amino)phenyl)-1H-pyrazol-1-yl)propane-1,2-diol], the pIC50 under setting [1] was at least 7.00. For `Cc1cc(Nc2nccc(C(F)(F)F)n2)cc(-c2cnn([C@@H](C)[C@@](C)(O)CO)c2)c1` (single isomer, unassigned) [Example 21.8, 2-methyl-3-[4-(3-methyl-5-{[4-(trifluoromethyl)pyrimidin-2-yl]amino}phenyl)-1H-pyrazol-1-yl]butane-1,2-diol], the pIC50 under setting [1] was at least 7.00.

In the case of `Cc1cc(Nc2nccc(C(F)(F)F)n2)cc(-c2cnn(C(C)C(C)(O)CO)c2)c1` (single isomer, unassigned) [Example 21.9, 2-methyl-3-[4-(3-methyl-5-{[4-(trifluoromethyl)pyrimidin-2-yl]amino}phenyl)-1H-pyrazol-1-yl]butane-1,2-diol], under setting [1], the pIC50 was at least 7.00.

As for `Cc1cc(Nc2nccc(C(F)(F)F)n2)cc(-c2cnn([C@@H](C)[C@](C)(O)CO)c2)c1` (single isomer, unassigned) [Example 21.10, 2-methyl-3-[4-(3-methyl-5-{[4-(trifluoromethyl)pyrimidin-2-yl]amino}phenyl)-1H-pyrazol-1-yl]butane-1,2-diol], the pIC50 under setting [1] was at least 7.00. On the same count and under the same terms, with `Cc1cc(Nc2nccc(C(F)(F)F)n2)cc(-c2cnn(C(C)C(C)(O)CO)c2)c1` (single isomer, unassigned) [Example 21.11, 2-methyl-3-[4-(3-methyl-5-{[4-(trifluoromethyl)pyrimidin-2-yl]amino}phenyl)-1H-pyrazol-1-yl]butane-1,2-diol] the figure was at least 7.00.

In the case of `Cc1cc(Nc2nccc(C(F)F)n2)cc(-c2cnn(C(C)C(C)(O)CO)c2)c1` (single isomer, unassigned) [Example 22.1, 3-(4-(3-((4-(Difluoromethyl)pyrimidin-2-yl)amino)-5-methylphenyl)-1H-pyrazol-1-yl)-2-methylbutane-1,2-diol], the pIC50 reads like this: (read-out: rhSYK IC50) 8.89; under setting [1], at least 7.00. `Cc1cc(Nc2nccc(C(F)F)n2)cc(-c2cnn(C(C)C(C)(O)CO)c2)c1` (single isomer, unassigned) [Example 22.2, 3-(4-(3-((4-(Difluoromethyl)pyrimidin-2-yl)amino)-5-methylphenyl)-1H-pyrazol-1-yl)-2-methylbutane-1,2-diol]: the pIC50 under setting [1] was at least 7.00. With `Cc1cc(Nc2nccc(C(F)(F)F)n2)cc(-c2cnn(C[C@@H]3OC(=O)N[C@H]3C)c2)c1` (single isomer, unassigned) [Example 23.1], the pIC50 runs as follows: (read-out: rhSYK IC50) 8.92; under setting [1], at least 7.00.

In the case of `Cc1cc(Nc2nccc(C(F)(F)F)n2)cc(-c2cnn(CC3OC(=O)NC3C)c2)c1` (single isomer, unassigned) [Example 23.2, 4-methyl-5-{[4-(3-methyl-5-{[4-(trifluoromethyl)pyrimidin-2-yl]amino}phenyl)-1H-pyrazol-1-yl]methyl}-1,3-oxazolidin-2-one], the pIC50 under setting [1] is at least 7.00.

Turning to `Cc1cc(Nc2nccc(C(F)(F)F)n2)cc(-c2cnn(CC3OC(=O)NC3C(C)C)c2)c1` (single isomer, unassigned) [Example 23.3, 4-(1-methylethyl)-5-{[4-(3-methyl-5-{[4-(trifluoromethyl)pyrimidin-2-yl]amino}phenyl)-1H-pyrazol-1-yl]methyl}-1,3-oxazolidin-2-one], under setting [1], the pIC50 was at least 7.00. On the same count and under the same terms, the result for `Cc1cc(Nc2nccc(C(F)(F)F)n2)cc(-c2cnn(CC3OC(=O)NC3C(C)C)c2)c1` (single isomer, unassigned) [Example 23.4, 4-(1-methylethyl)-5-{[4-(3-methyl-5-{[4-(trifluoromethyl)pyrimidin-2-yl]amino}phenyl)-1H-pyrazol-1-yl]methyl}-1,3-oxazolidin-2-one] reads at least 7.00.
